Laboratory results as given in article PMC10740580, “Benzothiazole-Phthalimide Hybrids as Anti-Breast Cancer and Antimicrobial Agents” (Antibiotics, 2023).
In brackets after ≈: the same amount, converted by molar mass.

What was measured:
[1] = test system: Staphylococcus aureus 43300; assay: Broth microdilution, S. aureus ATCC 43300; type: cell-based; settings: 24 h, 37 °C, methicillin-resistant
Source text: (§1) Compounds 3a–h were examined in accordance with the Clinical Laboratory Standards Institute (CLSI) recommendations, by means of the broth microdilution method, against gram-positive bacteria (Staphylococcus aureus 25923, Staphylococcus aureus 29213, Staphylococcus aureus 43300, Enterococcus faecalis 29212) and gram-negative bacteria (Escherichia coli 25922, Klebsiella pneumoniae 13883, Pseudomonas aeruginosa 27853) belonging to the ATCC collection, using levofloxacin as a reference drug. Table 3 lists the results, expressed as MIC (µg/mL). […] The lack of activity observed for compound 3d could be conceivably due to its poor solubility in the culture medium containing the inoculum.
(§2) Following the recommendations of the CLSI (Clinical and Laboratory Standards Institute, 2012), the broth microdilution method was used to determine the in vitro minimum inhibitory concentrations (MICs, µg/mL).. The concentration of the investigated compounds was set to its highest value to create stock solutions. Then, the stock solutions were diluted 1:10 with Cation-Adjusted Mueller Hinton Broth (Oxoid, Milan, Italy). After that, a series of concentrations from 512 µg/mL to […] were obtained in the wells by performing two-fold serial dilutions in the appropriate test medium. The diluent used to create the stock solution was 100% DMSO. We used the following bacterial strains from the ATCC collection that were available as freeze-dried discs: gram-positive strains such as S. aureus ATCC 25923, 29213, and 43300, and E. faecalis ATCC 29212, and gram-negative ones such as E. coli ATCC 25922, K. pneuomoniae ATCC 13883, and P. aeruginosa ATCC 27853. To preserve the purity of cultures and to allow their reproducibility, cryovials of all microbial strains were set up in the medium and stored at −80 °C. Mueller Hinton Broth (MHB) was used to prepare pre-cultures of each bacterial strain, which were then incubated for 3–5 h at 37 °C. In accordance with CLSI procedure M7-A9, the turbidity of the bacterial cell suspension was calibrated to 0.5 McFarland Standard using a spectrophotometric approach (OD625 nm 0.08–0.10). The standardized suspension was then further diluted (1:100) with MHB to reach 1–2 × 10^6 CFU/mL. A 200 µL aliquot of the final inoculum was inserted into each well. As a control for growth, several wells containing only inoculated broth were prepared. The plates were incubated at 37 °C for 24 h, and the MIC values were calculated as the lowest concentration of compounds at which there was no optically detectable bacteria growth. Each experiment was carried out in duplicate and repeated twice to determine the MICs. Levofloxacin served as the study’s standard reference antibiotic. Additionally, the antibacterial activity of DMSO alone (used as a diluent for the investigated compounds) was examined; therefore, volumes of this solvent with a concentration of less than 5% were utilized throughout the experimentation.

Candida albicans 90028 = assay: Antifungal microdilution, C. albicans ATCC 90028; type: cell-based; settings: microdilution CLSI M27-A3, 48 h, 37 °C
Procedure: (§3) In accordance with CLSI guidelines, compounds 3a–h were tested against a variety of fungal strains (Candida albicans 10231, Candida albicans 90028, Candida glabrata 15126, and Candida parapsilosis 22019) belonging to the ATCC collection. Amphotericin B was utilized as a reference drug. A similar trend of results, or even better than that obtained against bacteria, was assessed against fungal strains. […] Also, in this case, compound 3h emerged as the best of the series, with MICs of 16 μg/mL against Candida glabrata and Candida parapsilosis strains and 32 μg/mL against Candida albicans strains.
(§4) A microdilution technique described by the Clinical and Laboratory Standards Institute (CLSI, M27-A3) was used to assess the antifungal activity. The following fungal strains, belonging to the ATCC collection and available as freeze-dried discs, were used: C. albicans ATCC 10231, C. albicans ATCC 90028, C. glabrata ATCC 15126, and C. parapsilosis ATCC 22019. Stock solutions were prepared and preserved with purity as previously described for the antibacterial studies. Each yeast strain’s pre-cultures were made in Sabouraud broth (SAB) and allowed to grow until they stopped at 37 °C. By using a spectrophotometric technique (530 nm, range 0.12–0.15), the turbidity of the yeast stock suspension was calibrated to 0.5 McFarland Standard. Next, the standardized suspension was diluted first at 1:50 with SAB and then at 1:20 in the same medium to have […]. A total of 100 µL of inoculum was seeded into each well. As a control for growth, several wells containing only inoculated broth were prepared. The plates were incubated for 48 h at 37 °C, and the MIC values were calculated as the final well with no fungal growth. […] MIC values were observed based on the absence of fungal growth in the final well. The MICs were calculated by conducting the antifungal test three times in duplicate. As a control, amphotericin B was used.

Candida glabrata 15126 = assay: Antifungal microdilution, C. glabrata ATCC 15126; type: cell-based; settings: Nakaseomyces glabratus, microdilution CLSI M27-A3, 48 h, 37 °C, read-out: MIC C.g. 15126
Procedure: as §3, §4

[2] = test system: Enterococcus faecalis 29212; assay: Broth microdilution, E. faecalis ATCC 29212; type: cell-based; settings: 24 h, 37 °C, read-out: MIC E.f. 29212
Source text: as §1, §2

[3] = test system: Klebsiella pneumoniae 13883; assay: Broth microdilution, K. pneumoniae ATCC 13883; type: cell-based; settings: 24 h, 37 °C, read-out: MIC K.p. 13883
Source text: as §1, §2

[4] = test system: Candida parapsilosis 22019; assay: Antifungal microdilution, C. parapsilosis ATCC 22019; type: cell-based; settings: microdilution CLSI M27-A3, 48 h, 37 °C, read-out: MIC C.p. 22019
Procedure: as §3, §4

Structure (SMILES)	melting point [°C]	MIC [1] [µg/mL]	MIC (Candida albicans 90028) [µg/mL]	MIC (Candida glabrata 15126) [µg/mL]	MIC [2] [µg/mL]	MIC [3] [µg/mL]	MIC [4] [µg/mL]
COc1cc2nc(N3C(=O)c4ccccc4C3=O)sc2cc1OC [3f, 2-[5,6-Dimethoxy-1,3-benzothiazol-2-yl]-1H-isoindole-1,3(2H)-dione]	> 250	32 (≈ 94 µM)	64 (≈ 188 µM)	32 (≈ 94 µM)	32 (≈ 94 µM)	64 (≈ 188 µM)	32 (≈ 94 µM)
O=C1c2ccccc2C(=O)N1c1nc2ccccc2s1 [3a, 2-(1,3-benzothiazol-2-yl)-1H-isoindole-1,3(2H)-dione]	249 to 250	64 (≈ 228 µM)	64 (≈ 228 µM)	32 (≈ 114 µM)	64 (≈ 228 µM)	128 (≈ 457 µM)	32 (≈ 114 µM)
Cc1ccc2nc(N3C(=O)c4ccccc4C3=O)sc2c1 [3d, 2-[6-Methyl-1,3-benzothiazol-2-yl]-1H-isoindole-1,3(2H)-dione]	> 250	> 512	> 512	> 512	> 512	> 512	> 512
O=C1c2ccccc2C(=O)N1c1nc2ccc(F)cc2s1 [3b, 2-(6-Fluoro-1,3-benzothiazol-2-yl)-1H-isoindole-1,3(2H)-dione]	234 to 235	64 (≈ 215 µM)	64 (≈ 215 µM)	32 (≈ 107 µM)	64 (≈ 215 µM)	128 (≈ 429 µM)	32 (≈ 107 µM)
O=C1c2ccccc2C(=O)N1c1nc2ccc(Oc3ccccc3)cc2s1 [3h, 2-[6-Phenoxy-1,3-benzothiazol-2-yl]-1H-isoindole-1,3(2H)-dione]		32 (≈ 85.9 µM)	32 (≈ 85.9 µM)	16 (≈ 43 µM)	32 (≈ 85.9 µM)	32 (≈ 85.9 µM)	16 (≈ 43 µM)
O=C1c2ccccc2C(=O)N1c1nc2ccc(O)cc2s1 [3g, 2-[6-Hydroxy-1,3-benzothiazol-2-yl]-1H-isoindole-1,3(2H)-dione]	> 250	32 (≈ 108 µM)	64 (≈ 216 µM)	32 (≈ 108 µM)	32 (≈ 108 µM)	64 (≈ 216 µM)	32 (≈ 108 µM)
COc1ccc2nc(N3C(=O)c4ccccc4C3=O)sc2c1 [3e, 2-[6-Methoxy-1,3-benzothiazol-2-yl]-1H-isoindole-1,3(2H)-dione]	227 to 229	32 (≈ 103 µM)	64 (≈ 206 µM)	64 (≈ 206 µM)	64 (≈ 206 µM)	64 (≈ 206 µM)	32 (≈ 103 µM)
O=C1c2ccccc2C(=O)N1c1nc2ccc(C(F)(F)F)cc2s1 [3c, 2-[6-Trifluoromethyl-1,3-benzothiazol-2-yl]-1H-isoindole-1,3(2H)-dione]		64 (≈ 184 µM)	64 (≈ 184 µM)	64 (≈ 184 µM)	64 (≈ 184 µM)	128 (≈ 367 µM)	64 (≈ 184 µM)
